# Data reported in PMC9676923, “Characterization of relaxin 3 and its receptors in chicken: Evidence for relaxin 3 acting as a novel pituitary hormone” (Frontiers in Physiology, 2022).
# “Also recorded” adds a separate entry of the source.
# What was measured:
# [1] = system: cRLN3 mRNA expression in cultured chicken pituitary cells; settings: dihydrotestosterone 100 nM, 4 h/24 h; male chick pituitary cells; qPCR
# Procedure: (§1) The primers (10 μM), dNTP (10 mM), easy Taq buffer, easy Taq DNA polymerase (TransGen Biotech), Eva Green (Biotium), MilliQ-H2O, and templates were mixed in a total volume of 20 μl. Then the reaction mix was conducted on the CFX96 Real-Time PCR Detection System (Bio-Rad). The amplification conditions included an initial denaturation for 10 min at 94°C followed by 20 s of denaturation at 94°C, 15 s annealing at 60°C, and 30 s extension at 72°C for 40 cycles.
# To explore the regulatory effects of GnRH/CRH/E2/P4 on cRLN3, the anterior pituitaries isolated from 4-week-old female chicks were sliced and digested by 0.25% trypsin at 37°C for 20 min. The dispersed pituitary cells were cultured at a density of 5 × 10^5 cells/well in Medium 199 supplemented with 15% fetal bovine serum. Then, the medium was replaced with a serum-free M199 medium and the cells were incubated with GnRH (1–100 nM), CRH (0.1–10 nM), E2 (100 nM), and P4 (100 nM) for different duration times (4 h/24 h). […]
# (§2) The relative mRNA levels of target genes were first calculated as the ratios to that of β-actin and then expressed as fold change (or the percentage) compared to their respective controls (chosen tissues). The data were analyzed by Student’s t-test (between two groups), or by one-way ANOVA followed by the Dunnett test in GraphPad Prism 7 (GraphPad Software, San Diego, CA).
# [2] = system: cRLN3 mRNA expression in cultured chicken pituitary cells; assay: cRLN3 mRNA expression (qPCR) in cultured pituitary cells of 4-week-old female chicks; format: cell-based
# Procedure: as §1
# To explore the regulatory effects of GnRH/CRH/E2/P4 on cRLN3, the anterior pituitaries isolated from 4-week-old female chicks were sliced and digested by 0.25% trypsin at 37°C for 20 min. The dispersed pituitary cells were cultured at a density of 5 × 10^5 cells/well in Medium 199 supplemented with 15% fetal bovine serum. Then, the medium was replaced with a serum-free M199 medium and the cells were incubated with GnRH (1–100 nM), CRH (0.1–10 nM), E2 (100 nM), and P4 (100 nM) for different duration times (4 h/24 h). […] The total RNA was then extracted from cultured pituitary cells and the expression of RLN3 and β-actin mRNA was assayed by qPCR.
# as §2
# CART = settings: chicken pituitary, ref Cai et al., 2015, Mo et al., 2019; cited from earlier work
# Description: Till present, a total of five genes (LHB, FSHB, GRP, CART, and RLN3) have been detected to be abundantly expressed in chicken pituitary gonadotrope cells ([Mo et al., 2017]; [Zhang et al., 2021]). Although these genes concentrate on the same cell cluster, these genes vary in sexual distribution patterns, cell co-localization profiles, and the hypothalamus regulation networks. For example, RLN3 and GRP show an abundance in female gonadotrope cells while LHB, FSHB, and CART show a higher expression in male pituitary cells. In addition, all cells expressing RLN3 overlap with the cells expressing ...
# [3] = biological target: chicken relaxin family peptide 1 receptor (cRXFP1) (chicken)
# cRXFP1 = assay: pGL3-CRE-luciferase reporter (cAMP/PKA), HEK293 cells expressing cRXFP1; format: cell-based, chicken
# Procedure: According to our previously established methods ([Liu et al., 2019]; [Jiang et al., 2022]), two cell-based luciferase reporter systems (pGL3-CRE-luciferase and pGL3-NFAT-RE-luciferase) were used to verify whether cRLN3cm is biologically active and capable of activating cRXFP1 and cRXFP3. In brief, HEK293 cells transiently expressing each receptor (cRXFP1 and cRXFP3) were treated with 30 μl serum-free medium containing cRLN3cm or pcDNAcm (0.001–10 μl) for 6 h, and the receptor-activated cAMP/PKA pathways and calcium mobilization were then monitored by pGL3-CRE-luciferase and pGL3-NFAT-RE-luciferase reporter systems, respectively. HEK293 cells expressing empty pcDNA3.1 (+) were used as a negative control.
# To compare the functional difference between chicken RLN3 and human RLN3, recombinant human RLN3 (rhRLN3, 10^–12 to 10^–7 M, 6 h) was used to treat HEK293 cells expressing cRXFP1 or cRXFP3, respectively, and its potency in activating cRXFP1 and cRXFP3 was also evaluated.
# To verify whether chicken RLN3 can activate RXFP1 or RXFP3, a cRLN3-conditioned medium (cRLN3cm, 0.001–10 μl) was used to treat HEK293 cells expressing cRXFP1/cRXFP3. Receptor activation was examined by pGL3-CRE-luciferase and pGL3-NFAT-RE-luciferase reporter systems established in our previous studies ([Liu et al., 2019]).
# [4] = system: relaxin family peptide 2 receptor (RXFP2); settings: ref Kumagai et al., 2002; Hsu et al., 2003; cited from earlier work
# Description: As the typical member of the insulin superfamily, the RLNs bind their receptors to play their physiological roles. In mammals, RLN1 and RLN2 bind the relaxin family peptide 1 receptor (RXFP1) for downstream signaling ([Bathgate et al., 2013]). As their cognate receptor, RXFP1, which is also called the leucine-rich repeat-containing G-protein-coupled receptor 7 (LGR7), is capable of coupling to multiple G-proteins, thus triggering the pathways including cAMP accumulation ([Halls et al., 2006]; [Halls et al., 2007]; [Halls et al., 2009]), ERK1/2 phosphorylation, NO production, and other signalin ...
# [5] = biological target: chicken relaxin family peptide 1 receptor (cRXFP1) (chicken); remark: listed apart in the source
# [6] = biological target: chicken relaxin family peptide 3 receptor (cRXFP3) (chicken)
compound,measurement,setting,value
"C[C@]12CCC(=O)C[C@@H]1CC[C@@H]1[C@@H]2CC[C@]2(C)[C@@H](O)CC[C@@H]12 [DHT, dihydrotestosterone]",effect of DHT on cRLN3 mRNA expression,[1],could not affect the expression of cRLN3 mRNA
"C[C@]12CC[C@@H]3c4ccc(O)cc4CC[C@H]3[C@@H]1CC[C@@H]2O [E2, 17β-estradiol]","effect of E2 on cRLN3 mRNA expression, 4 h","[2]; 17β-estradiol 100 nM, 4 h, qPCR",could increase the expression level of cRLN3 mRNA; also recorded: found to increase the expression of cRLN3
same,"effect of E2 on cRLN3 mRNA expression, 24 h","[2]; 17β-estradiol 100 nM, 24 h, qPCR",could not regulate the mRNA expression of cRLN3
"CC(=O)[C@H]1CC[C@H]2[C@@H]3CCC4=CC(=O)CC[C@]4(C)[C@H]3CC[C@]12C [P4, progesterone]",effect of P4 on cRLN3 mRNA expression,"[2]; progesterone 100 nM, 4 h/24 h, qPCR",could not affect the expression of cRLN3 mRNA
"Chicken gonadotropin-releasing hormone (QHWSYGLQPG; Gonadoliberin-1; UniProt P37042 24-33, looked up) [GnRH, synthesized using solid-phase Fmoc chemistry (GL Biochem, Shanghai, China)]","regulation of CART, GnRH compared with CRH",CART,equal potency
same,"effect of GnRH on cRLN3 mRNA expression, 4 h","[2]; GnRH 10 nM, 4 h, qPCR, fold vs control",slightly increase the expression of cRLN3 mRNA
same,"effect of GnRH on cRLN3 mRNA expression, 24 h","[2]; GnRH 10 nM, 24 h, qPCR, fold vs control",not able to further regulate the expression of cRLN3 mRNA
same,"effect of GnRH on cRLN3 mRNA expression, dose response","[2]; GnRH 1, 10, 100 nM, 4 h, qPCR, N = 4",could increase the expression level of cRLN3 mRNA in a dose-dependent manner; also recorded: could only weakly stimulate the mRNA expression of cRLN3
"chicken relaxin 3 (cRLN3), in conditioned medium of HEK293 cells transfected with the cRLN3 expression plasmid (ligand)","potency of cRLN3cm in activating cRXFP1 relative to cRXFP3, pGL3-CRE-luciferase reporter in HEK293 cells",[3],> 10 fold
chicken relaxin 3 [cRLN3],potency on cRXFP1 compared with cRXFP3 (in words),cRXFP1; HEK293 cells expressing cRXFP1 or cRXFP3,cRXFP1 showed a higher binding potency with cRLN3 than cRXFP3
same,potency in activating cRXFP1 relative to cRXFP3,"cRXFP1; fold more potent on cRXFP1 than on cRXFP3, cRLN3cm, HEK293 cells",at least 10 fold
corticotropin-releasing hormone [CRH],"regulation of CART, GnRH compared with CRH",CART,equal potency
same,"effect of CRH on cRLN3 mRNA expression, time course","[2]; CRH 10 nM, 4 h and 24 h, qPCR, fold vs control",significantly increase the expression of cRLN3 mRNA in a time-dependent manner
same,"effect of CRH on cRLN3 mRNA expression, dose response","[2]; CRH 0.1, 1, 10 nM, 24 h, qPCR, N = 4",could increase the expression level of cRLN3 mRNA in a dose-dependent manner; also recorded: potently stimulates the expression of cRLN3 in a dose- and time-dependent manner
same,"stimulation of cRLN3 mRNA expression, CRH compared with GnRH","[2]; CRH 0.1–10 nM, 24 h vs GnRH 1–100 nM, 4 h",the stimulation effect of CRH was higher than that of GnRH
insulin-like peptide 3 [INSL3],RXFP2 downstream signaling,[4],cAMP level increase and thymidine incorporation
recombinant human relaxin 3 (rhRLN3) (ligand),"EC50 of activation, Ca2+ pathway (pGL3-NFAT-RE-luciferase reporter) in HEK293 cells expressing cRXFP1; rhRLN3 10^-12 to 10^-7 M, 6 h",[5],21.1 nM
same,"EC50 of activation, cAMP/PKA pathway (pGL3-CRE-luciferase reporter) in HEK293 cells expressing cRXFP1; rhRLN3 10^-12 to 10^-7 M, 6 h",[5],2.68 nM
same,"EC50 of inhibition of forskolin-stimulated luciferase activity, cAMP/PKA pathway (pGL3-CRE-luciferase reporter) in HEK293 cells expressing cRXFP3; rhRLN3 10^-12 to 10^-7 M, 6 h",[6],41.5 nM
